In US20140079741A1, “INHIBITION AND TREATMENT OF BIOFILMS” (priority 2011, published 2014):

Experiments:
[1] = system: biofilms of C. albicans CAF2-1; assay: MIC50 against biofilms (XTT reduction assay); format: cell-based, Candida albicans; settings: Candida albicans, biofilms, diclofenac alone
Experimental: Using the same setup as above, WT biofilms grown in the presence or absence of diclofenac (0.5-3 mM or 148-888 μg/mL) were incubated with various concentrations of Caspofungin (0-150 μM) for 24 h, both in the presence or absence of diclofenac. After washing, the remaining living cells within the biofilm was determined by CellTiter-Blue quantification. The MIC50 of caspofungin, diclofenac and the combination of both drugs against pretreated or mature C. albicans biofilms was quantified by XTT reduction assay (Ramage et al.).
(§1) Similar results were obtained by determination of the MIC50 values. The susceptibility testing and determination of minimal inhibitory concentrations (MIC) of diclofenac and caspofungin, and combinations thereof that inhibit fungal growth by 50% (MIC50) were performed according the NCCLS M27-A3 protocol (2008).

[2] = system: C. albicans cells; assay: Morphology of planktonic and biofilm cells (fluorescence microscopy); format: cell-based, Candida albicans; settings: pretreated with diclofenac alone, 0.5-3 mM
Experimental: However, the morphology of biofilm cells pretreated with diclofenac alone (ranging from 0.5-3 mM), was not altered.

[3] = system: planktonic cultures of C. albicans CAF2-1; assay: MIC50 against planktonic cultures (NCCLS M27-A3); format: cell-based, Candida albicans; settings: diclofenac up to 2 mM
Experimental: as §1

[4] = system: C. albicans biofilms of wild type CAF2; assay: Biofilm activity assay, crystal violet quantification (BEC50); format: cell-based, Candida albicans; settings: 500 μg/ml diclofenac in the absence of miconazole
Experimental: Biofilm activity assay. The activity of miconazole and fluconazole against 16 h-old C. albicans biofilms (10^7 cells/well) was assessed using the crystal violet quantification method. The biofilm-eradicating capacity of a compound was determined as the minimal concentration resulting in 50% eradication of the biofilm (BEC50).
Miconazole sensitivity was analyzed of biofilms of C. albicans homozygous null mutants affected in genes involved in the cyclic AMP signaling pathway, namely Δcdc35, Δras1, Δpde1, Δpde2 and Δefg1. To this end, the inventors incubated 16 h-old C. albicans biofilms with various concentrations of miconazole for 24 h and determined the remaining biomass using the crystal violet quantification method.
To this end, cultures of the WT CAF2-1 were grown overnight (2×10^8 cells/ml) in YPD (1% yeast extract, 2% peptone, 2% glucose) and washed 3 times in PBS (pH 7.4). After dilution (OD600=0.5) in SC (1% CSM, complete amino acid supplement mixture, 1% YNB, yeast nitrogen base; 2% glucose), the cultures were resuspended (100 μl/well) in a 96well microtiter plate. After 1 h of adhesion, the adherent WT cells were incubated with or without 500 μg/ml diclofenac and allowed biofilm formation for 16 h. Next, the resulting biofilms were washed with PBS and treated with various concentrations of miconazole for 24 h in the absence or presence of diclofenac. After washing, the remaining biomass was determined using the crystal violet quantification method.
The biofilm-eradicating capacity of a compound was determined as the minimal concentration resulting in 50% eradication of the biofilm (BEC50).

[5] = system: C. albicans WT biofilms; assay: Biofilm survival by CFU determination (plating on YPD); format: cell-based, Candida albicans; settings: 500 μg/ml diclofenac alone
Experimental: Using the same setup as in Example 2, WT biofilms grown in the presence or absence of diclofenac (500 μg/ml) or Δefg1 biofilms were incubated with various concentrations of Amphotericin B (AmB) (2.5-10 μg/ml) for 24 h, both in the presence or absence of diclofenac. After washing, the remaining living cells within the biofilm were determined by plating on YPD and determination of colony forming units (CFUs).

[6] = system: C. albicans biofilms grown on catheters; assay: In vitro biofilm drug susceptibility on polyurethane catheter pieces (CFU); format: cell-based, Candida albicans; settings: 2 mM diclofenac pretreatment alone
Experimental: In an alternative setup, in vitro biofilm drug susceptibility assays were performed using serum-coated 1 cm polyurethane catheter pieces (Arrow International Reading) as described previously. Biofilms were grown in RPMI 1640 (pH 7.0) and Candida cells were allowed to adhere to the substrate for 90 min.
Diclofenac (2 mM) was administered during the period of adhesion of C. albicans cells on the catheters and throughout the period of biofilm formation. Catheter fragments containing diclofenac-pretreated or untreated mature biofilms were washed and subsequently incubated with caspofungin (125 μM) or water in the presence or absence of diclofenac (2 mM) for 24 h, respectively. Biofilms were washed and quantified by determination of colony forming units. Untreated biofilms were considered as controls. Statistical analysis was performed using unpaired t-test; differences were considered significant if p<0.05. Data are the mean and SEM of five independent experiments using at least two catheters per test group.
Similar results were obtained when assessing the antibiofilm effect of caspofungin against mature biofilms, which were formed on diclofenac-soaked catheter fragments versus those formed on unsoaked catheter fragments.

[7] = system: C. albicans biofilm cells; assay: Membrane permeability by propidium iodide fluorescence; format: cell-based, Candida albicans; settings: 2 mM diclofenac during adhesion and growth phase, 24 h, RPMI 1640
Experimental: This was further investigated by evaluating the membrane-disruptive activity of diclofenac on in vitro grown C. albicans biofilm cells by measuring the fluorescence enhancement of propidium iodide (PI). To this end, C. albicans biofilms were grown in RPMI 1640 (pH 7.0) in the presence or absence of diclofenac (ranging from 0.25-4 mM) for 24 h. Next, the biofilm cells were incubated with 3% PI for 20 minutes at room temperature in the dark. Membrane permeability was quantified by measurement of PI fluorescence (excitation at 535 nm, emission at 617 nm).

[8] = system: C. albicans CAF2 biofilms on implanted catheter fragments; assay: Rat subcutaneous catheter infection model (in vivo biofilm susceptibility); parameters: species or system Candida albicans; settings: rats
Experimental: A rat subcutaneous catheter infection model was used for in vivo biofilm susceptibility studies, in which 6 rats were treated with sterile saline (control, 40 catheters), 6 rats with diclofenac (48 catheters), 5 rats with caspofungin (40 catheters) and 6 rats with a combination of diclofenac and caspofungin (45 catheters).
Diclofenac and caspofungin solutions for intravenous injection were prepared in sterile physiological solution. The administration of diclofenac (3 mg/kg) started immediately after the catheter implant and continued daily up to 9 days. The treatment with caspofungin (3 mg/kg) was initiated after 48 h of in vivo biofilm development and maintained by daily injections for 7 days. Sterile saline was administered to the control group. Further analysis and quantification of the number of cells per individual biofilm was performed as previously described. Statistical analysis was performed using unpaired t-test; differences were considered significant if p<0.05. Data are the means and SEM of 2 independent experiments. Six independent catheters retrieved from each test group were used for scanning electron microscopy (SEM) analyses. Prior to the SEM analysis, each catheter fragment was cut longitudinally through the lumen and subsequently prepared for microscopy as previously described.

Structure (SMILES): O=C(O)Cc1ccccc1Nc1c(Cl)cccc1Cl [diclofenac]
- MIC50 [1]: 2000 µM
- morphology of biofilm cells [2]: not altered
- inhibitory activity against planktonic cells [3]: no inhibitory activity
- remaining C. albicans biofilms compared to untreated WT biofilms [4]: about 50%
- less biofilm cells compared to untreated WT biofilms [5]: about 50%
- number of biofilm cells compared to untreated catheters [6]: no significant difference
- membrane permeability compared to untreated cells [7]: significantly increased membrane permeability
- biofilm structure by scanning electron microscopy ([8]; diclofenac alone): no biofilm-inhibitory effect
- number of biofilm cells on catheters compared to control treatment ([8]; diclofenac alone 3 mg/kg intravenous daily, 48 h pretreatment and up to 7 days further): no significant difference
